Laboratory results: patent US20250248960A1, “Methods for Providing Rapid Relief of Motor Fluctuations in a Parkinson's Disease Patient” (priority 2012, published 2025)

Tested on: Parkinson's disease patients
Assay: Phase 2 study: plasma levodopa concentrations compared to UPDRS scores (off/on state)
Type: in vivo, human
Details: plasma levels vs UPDRS scores, FIG. 8
Procedure: The twenty four (24) patients treated in this study underwent serial evaluations of L-dopa plasma levels, motor response, and safety at each visit. The patients were administered the study drug in the OFF state with the serial evaluations starting prior to dosing and continuing for up to 180 minutes post-dose. Motor function was measured using a tapping test, the Unified Parkinson's Disease Rating Scale Part III (UPDRS III), and subjective evaluation of “meaningful” ON and OFF. Safety parameters monitored included pulmonary function, clinical laboratory data, EGCs, and vital signs (blood pressure, heart rate, and orthostatic blood pressure). This study was designed to measure the time, magnitude, and durability of pulmonary levodopa's effect on motor function, to evaluate the safety and tolerability of pulmonary levodopa in Parkinson's disease patients.
In FIG. 8, patient's plasma levodopa concentrations are being compared to UPDRS scores. UPDRS is a standard test for Parkinson's disease patients to test their response to drug treatment and their disease progression. […] As little as 200-400 ng/ml of levodopa plasma concentration makes the difference between being in the off state and being in the on state. […]

N[C@@H](Cc1ccc(O)c(O)c1)C(=O)O [L-Dopa, levodopa]
levodopa plasma concentration difference between being in the off state and being in the on state: 200 to 400 ng/mL
